Each structure is given as a SMILES string.

One series relates to Pisum sativum. Put plainly: Herbicidal activity against 2 to 3 leaf stage Pisum sativum assessed as inhibition of plant growth at 450 g/ha in greenhouse by postemergence herbicidal activity assay. In kind it is functional. The following applies: Lathyrus oleraceus, post-emergence; read-out: GI.
Series [1] relates to Brassica rapa subsp. oleifera. Kind of series: Herbicidal activity against Brassica rapa subsp. oleifera assessed as inhibition of rape root growth. The series is classed as functional, organism-based.
The test system of the next series is Amaranthus retroflexus. Kind of series: Herbicidal activity against 2 to 3 leaf stage Amaranthus retroflexus assessed as inhibition of plant growth at 450 g/ha in greenhouse by postemergence herbicidal activity assay. The series is classed as functional. The note with it: post-emergence, read-out: GI.
The test system of series [2] is Brassica rapa subsp. oleifera. Kind of series: Herbicidal activity against Brassica rapa subsp. oleifera assessed as inhibition of rape root growth at 450 g/ha by postemergence herbicidal activity assay. In kind it is functional. The following applies: post-emergence, read-out: GI.
The next series relates to Oryza sativa. Kind of series: Herbicidal activity against two to three-leaf stage Oryza sativa (rice) assessed as inhibition of plant growth at 450 g/ha in greenhouse by postemergence herbicidal activity assay. In kind it is organism-based. The note with it: in vivo, other.
Series [3] is described as follows: Inhibition of Oryza sativa (rice) PDHc by spectrophotometric assay.
The target of series [4] is T1, Pyruvate dehydrogenase complex (Pisum sativum, UniProt P52902+P52904).
T1 sequence (P52902 whole entry): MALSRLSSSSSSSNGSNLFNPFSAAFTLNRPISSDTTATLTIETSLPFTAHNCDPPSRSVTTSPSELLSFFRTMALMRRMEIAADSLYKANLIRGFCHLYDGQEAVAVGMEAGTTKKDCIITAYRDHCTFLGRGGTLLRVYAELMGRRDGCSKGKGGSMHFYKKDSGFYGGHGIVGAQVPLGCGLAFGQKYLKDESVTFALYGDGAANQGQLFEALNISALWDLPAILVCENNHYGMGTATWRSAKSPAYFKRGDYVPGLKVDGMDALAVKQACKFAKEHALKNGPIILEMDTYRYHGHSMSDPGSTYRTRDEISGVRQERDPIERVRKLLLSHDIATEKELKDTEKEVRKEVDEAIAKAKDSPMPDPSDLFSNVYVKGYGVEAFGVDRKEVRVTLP
T1 sequence (P52904 whole entry): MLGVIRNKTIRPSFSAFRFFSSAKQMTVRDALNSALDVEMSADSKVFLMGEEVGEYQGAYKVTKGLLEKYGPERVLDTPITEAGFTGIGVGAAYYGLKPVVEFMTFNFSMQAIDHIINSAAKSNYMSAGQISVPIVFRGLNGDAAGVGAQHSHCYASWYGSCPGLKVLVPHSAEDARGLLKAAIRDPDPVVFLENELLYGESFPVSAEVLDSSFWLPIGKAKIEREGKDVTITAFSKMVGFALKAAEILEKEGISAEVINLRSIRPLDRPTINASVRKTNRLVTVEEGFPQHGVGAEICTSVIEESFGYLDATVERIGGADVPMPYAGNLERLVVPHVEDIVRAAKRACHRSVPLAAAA
Kind of series: Inhibition of Pisum sativum (pea) PDHc by spectrophotometric assay. In kind it is protein-complex assay, Lathyrus oleraceus.

The subject of series [5] is Brassica rapa subsp. oleifera. Kind of series: Herbicidal activity against Brassica rapa subsp. oleifera assessed as inhibition of rape root growth at 450 g/ha by pre-emergence herbicidal activity assay. The series is classed as functional. The following applies: read-out: GI.
The test system of the next series is Brassica juncea. Kind of series: Herbicidal activity against two to three-leaf stage Brassica juncea assessed as inhibition of plant growth at 450 g/ha in greenhouse by post-emergence herbicidal activity assay. In kind it is functional. The note with it: read-out: GI.
The test system of another series is Echinochloa crus-galli. Put plainly: Herbicidal activity against 2 to 3 leaf stage Echinochloa crus-galli (barnyard grass) assessed as inhibition of plant growth at 450 g/ha in greenhouse by postemergence herbicidal activity assay. The series is classed as functional. The following applies: Echinochloa crus-galli, post-emergence; read-out: GI.

Broadly, the IC50 is the concentration that gives 50% inhibition. In the case of `COP(=O)([O-])C(OC(=O)COc1ccc(Cl)cc1Cl)c1ccco1.[Na+]` (stereo not given), the inhibition of growth at 450 g/ha with Pisum sativum came to 98%; with Amaranthus retroflexus it was 100%; in series [2], 95%; in [5] it was 96%; in the series with Brassica juncea, 92.5%; in the series on Echinochloa crus-galli, 50%. The 50% inhibitory concentration (IC50) in series [1] came out at 39.6 nM; in series [3], 41.1 µM; in series [4], 6.96 µM. Also, in the series on Oryza sativa, the “growth inhibition (GI)” value is recorded as 45%.

The record behind these values is ChEMBL document CHEMBL3044788, “α-(Substituted-phenoxyacetoxy)-α-heterocyclylmethylphosphonates: synthesis, herbicidal activity, inhibition on pyruvate dehydrogenase complex (PDHc), and application as postemergent herbicide against broadleaf weeds” (J Agric Food Chem, 2013).
